# Test results published in patent US20250057791A1, “PROTECTION AGAINST ARTHROPOD PARASITES WITH PURINERGIC RECEPTOR (OPR) ANTAGONISTS” (priority 2021, published 2025).
# Legend:
# [1] = tested on: A. gambiae mouthpart ATP-sensitive receptor; assay: Electrophysiological response to 200 pM ATP with PR antagonist admixed; assay type: cell-based, Anopheles gambiae; conditions: for effect on EP response to ATP, in words: 200 pM ATP, suramin at 1 nM; for ID95 in nM (±s.e.m.): increasing doses admixed to 200 pM ATP
# Experimental: The tip recording method was used to record action potentials (spikes) from sensory cells in sensilla on A. gambiae labellum lobes.
# Sensilla were exposed to test compounds and PR antagonists for ca. 2-4 s and spikes were counted in the first 2 s of recordings. Up to 4 test compounds were tested on a sensillum to evaluate potential agonists, each presented at 200 pM. To study responses as a function of dose for agonists ATP, adenosine, AMP, AMP-CPP and ATP+adenosine, up to 7 recordings were made at increasing doses of agonist from the same sensillum. Unless otherwise stated, recordings were made throughout from 4 to 16 sensilla from individual 4-6-day-old females per dose of agonist, antagonist and metal ion modulator. For example, a response curve established over 6 doses of an antagonist using 8 sensilla per dose involved recording from a sensillum of 48 separate mosquitoes. A given dose of a PR antagonist or metal ion modulator was only presented once to a sensillum. Two-second recordings were imported as ASCII files into DataView software for analysis of spike amplitude. Differences in spike amplitude generated by stimulation of one 8v sensillum/female with 1 mM sucrose (n=294 spikes from 6 females) 200 pM adenosine (n=207 spikes from 7 females) and 200 pM ATP (n=192 spikes from 7 females) were compared by measuring the spike amplitude in mV between the highest point of depolarisation and the lowest point of hyperpolarisation.
# Pairwise comparisons of A. gambiae electrophysiological (EP) responses to ATP and adenosine alone and combined with a given dose of PR antagonist, EP responses to ATP alone and combined with a given dose of a metal modulator, and EP responses to ATP prior to and after exposure of a sensillum to a given dose of a PR antagonist were made with a one-tailed Wilcoxon signed-rank test for data showing a non-normal distribution, with a paired Student's t-test for normally distributed data showing homogeneous variance and with a Welch's t-test for normally distributed data showing non-homogeneous variance. Effects on feeding of adding ATP, AMP-CPP, adenosine, ATP+adenosine, AMP and ADP-βS, CPT with ATP or adenosine, TMP with ATP+adenosine, TMP+CPT with ATP+adenosine to the FS for A. gambiae, and of adding PR antagonists with ATP to the FS for A. stephensi were compared using one-tailed Mann-Whitney U-test or Welch's t-test, depending on data distribution; Holm's FWEC was applied where treatment comparisons involved the same positive control. Percent feeding inhibition induced by PR antagonists in A. stephensi was calculated using Abbott's formula.
# Dose-response models fitted to mosquito data were generated using the ‘drm’ command in the “drc” R package (version 2.5-12). Best fitting models (goodness of fit) and effects of dose of a compound were assessed using, respectively, ‘modelFit’ and ‘noEffect’ functions in the same R package. A 3-parameter logistic model (L3) was fitted to spike-counts recorded to increasing doses of adenosine, AMP, ATP and AMP-CPP. Spike numbers recorded in response to 200 pM ATP with increasing doses of PR antagonists added were analysed using a 4-parameter log-logistic model (LL.4) for A-317491 and spinorphin, using a 4-parameter Weibull model (W1.4) for PPADS, RB-2 and TMP, and using a 3-parameter log-logistic model (LL.3) for suramin. An L3 model was fitted to proportions of females feeding on increasing doses of ATP. Feeding rates on 20 μM ATP with increasing doses of a PR antagonist added were analysed using a 4-parameter log-logistic model (LL.4) with the median of the positive control (20 μM ATP) fixed as the upper asymptote. Response dynamics in 3-parameter models are related to the slope b, the upper asymptote, and inflexion point of the model e (the ED50 value), whereas 4 parameter models also include the lower asymptote parameter. […]
# Ixodes ricinus = assay: Glass capillary feeding of partly fed female ticks, Ixodes ricinus; assay type: in vivo; conditions: for Fluid intake, Median (mg): females, glass capillary
# Excerpt: (§1) I. ricinus adults were prefed for 3-4 days and A. hebraeum adults for 10 days on a membrane over bovine blood (Kröber T. and Guerin P. M., 2007, supra). Partly fed I. ricinus and A. hebraeum, freshly detached from the membrane, were tightly fixed by the scutum and alloscutum to double-sided adhesive tape (Tesafix® 4964, Beiersdorf, Hamburg, Germany) on a glass slide and secured with plasticine. Test compounds were fed to these partly-fed female ticks using borosilicate capillary tubes (Clark GC120-10, 0.69 mm i.d., 1.2 mm o.d., 50 mm long; Clark Electromedical Instruments, Pangbourne, Reading, UK) with drawn out tips adapted to fit around the mouthparts of individual ticks. Feeding capillaries were filled with a solution of 100 mM NaCl, 8.9 mM NaHCO3 with 1000 μM ATP added, hereafter termed tick feeding solution (TFS) that served as positive control in each feeding experiment. PR antagonists were added to the TFS and pH of the solution was adjusted to 7.2-7.8. Capillary-fed ticks were kept in a plastic box on a warm plate at 34° C. and 80% RH using wet paper. After 1 h, the amount of solution imbibed by a tick was indicated by the drop of the meniscus in the capillary and measured using Vernier callipers and converted to mg.
# Uptake of TFS containing PR antagonists, converted to mg/h for hard ticks and weight gains in mg/25 min for soft ticks, was compared to TFS uptake in the corresponding positive controls. […] For tsetse and horn flies the percentage flies that fed per antagonist treatment served as the criterion for inhibition of feeding. As horn fly sexes emerged within 24 h, both sexes were assumed to show the same degree of appetence. In tsetse, males emerged first so a gender-related appetence could not be excluded. No sex-related feeding differences in feeding were found for testse (GLM, P>0.05) so data for the sexes were pooled. Comparisons of percentage fed flies were made using a Bayesian GLM—the most appropriate model considering the zero-inflated distributions shown by the data sets. […]
# Amblyomma hebraeum = assay: Glass capillary feeding of partly fed female ticks, Amblyomma hebraeum; assay type: in vivo; conditions: females
# Excerpt: as §1, with “mg. […]” for “mg.”
# Ornithodorus moubata = assay: Silicone membrane feeding of N3, N4 nymphs, Ornithodorus moubata; assay type: in vivo; conditions: for effect on feeding, compound in solution containing ATP, in words: doses as in Table 9
# Experimental: O. moubata nymphs were fed for 25 min through a membrane (50-75 μm thick) as for hard ticks in glass feeding unit on TFS containing 1000 μM ATP as positive control in each feeding experiment. PR antagonists were added to the TFS as for hard ticks. One compound, TMP was applied onto the membrane in aqueous solution (8 μg TMP in 70 μl) in small drops using a micropipette. Individual nymphs were marked on the dorsum with nail varnish in distinguishable colours and weighed before and after the experiment.
# Uptake of TFS containing PR antagonists, converted to mg/h for hard ticks and weight gains in mg/25 min for soft ticks, was compared to TFS uptake in the corresponding positive controls. […] For tsetse and horn flies the percentage flies that fed per antagonist treatment served as the criterion for inhibition of feeding. As horn fly sexes emerged within 24 h, both sexes were assumed to show the same degree of appetence. In tsetse, males emerged first so a gender-related appetence could not be excluded. No sex-related feeding differences in feeding were found for testse (GLM, P>0.05) so data for the sexes were pooled. Comparisons of percentage fed flies were made using a Bayesian GLM—the most appropriate model considering the zero-inflated distributions shown by the data sets. […] P-values were corrected using Holm's FWEC in multiple comparisons of data for each tick and fly species.
# [2] = target: Vertebrate P2X3 and P2X2/3 PRs; conditions: cited from earlier work
# [3] = TFS + 100 μM, N3, N4, silicone membrane
structure (smiles),measurement,setting,value
"O=C(O)c1cc(C(=O)O)c(C(=O)N(Cc2cccc(Oc3ccccc3)c2)[C@H]2CCCc3ccccc32)cc1C(=O)O [A-317491, 5-[(3-phenoxyphenyl)methyl-[(1S)-1,2,3,4-tetrahydronaphthalen-1-yl]carbamoyl]benzene-1,2,4-tricarboxylic acid]","effect on EP response to ATP, in words",[1],inhibited
same,"Mean no. of spikes per 2 s (±s.e.m.), ATP + antagonist",[1]; antagonist 0.5 nM + 200 pM ATP,7.5 spikes per 2 s
same,"Fluid intake, Median (mg)",Ixodes ricinus; TFS + 1 μM,1.5 mg/h
same,"effect on feeding on solution containing ATP, in words",Ixodes ricinus; doses as in Table 9,inhibited feeding
same,"Fluid intake, Median (mg)",Amblyomma hebraeum; TFS + 1 μM,6.7 mg/h
same,"weight gain, Median (mg)","Ornithodorus moubata; TFS + 1 μM, N3, N4, silicone membrane",0.1 mg/25 min
same,"weight gain, Median (mg)",Ornithodorus moubata; [3],0 mg/25 min
same,"effect on feeding, compound in solution containing ATP, in words",Ornithodorus moubata,inhibited feeding
same,Kd,"[2]; Jarvis et al., 2002",0.9 nM
"Nc1ncnc2c1ncn2[C@@H]1O[C@H](COP(=O)(O)OP(=O)(O)OP(=O)(O)O)[C@@H](O)[C@H]1O [ATP, Adenosine 5′-triphosphate]",affinity,[2],< 1 nM
Cc1ccc(C(=O)Nc2ccc(S(=O)(=O)O)c3cc(S(=O)(=O)O)cc(S(=O)(=O)O)c23)cc1NC(=O)c1cccc(NC(=O)Nc2cccc(C(=O)Nc3cc(C(=O)Nc4ccc(S(=O)(=O)O)c5cc(S(=O)(=O)O)cc(S(=O)(=O)O)c45)ccc3C)c2)c1 [Suramin],"Mean no. of spikes per 2 s (±s.e.m.), ATP + antagonist",[1]; antagonist 0.6 nM + 200 pM ATP,4.20 spikes per 2 s
same,ID95 in nM (±s.e.m.),[1],1.15 nM
same,"Fluid intake, Median (mg)",Ixodes ricinus; TFS + 500 μM,1.9 mg/h
same,"Fluid intake, Median (mg)",Amblyomma hebraeum; TFS + 500 μM,4.5 mg/h
same,"weight gain, Median (mg)","Ornithodorus moubata; TFS + 500 μM, N3, N4, silicone membrane",0 mg/25 min
"Cc1nc(C)c(C)nc1C [TMP, 2,3,5,6-tetramethylpyrazine]","effect on EP response to ATP, in words",[1],inhibited
same,"Mean no. of spikes per 2 s (±s.e.m.), ATP + antagonist",[1]; antagonist 10 nM + 200 pM ATP,11.2 spikes per 2 s
same,ID95 in nM (±s.e.m.),[1],27.50 nM
same,"weight gain, Median (mg)","Ornithodorus moubata; 8 μg/cm^2 on membrane over TFS, N3, N4",0 mg/25 min
same,"weight gain, Median (mg)",Ornithodorus moubata; [3],0.1 mg/25 min
same,"effect on feeding, compound applied onto the feeding membrane, in words",Ornithodorus moubata; dose as in Table 9,significantly inhibited feeding
same,"effect on feeding, compound in solution containing ATP, in words",Ornithodorus moubata,failed to inhibit feeding
